In patent publication US20140308313A1 (priority 2006, published 2014):

Test system: IgG1 and IgG2a antibodies to TT
Parameters: species or system mice
Settings: mouse, in vivo

CCCCCCCCCCCCCCCCCCCCCCCCCC(=O)N[C@@H](CO[C@H]1OC(CO)[C@H](O)C(O)C1O)[C@H](O)[C@@H](O)CCCCCCCCCCCCCC (stereo partly drawn) [α-GC, α-galactosylceramide]
production of IgG1 and IgG2a antibodies compared to CFA, CpG, MF59 and Alum: overall as potent as the above benchmark adjuvants
